The assay concerns VCAM-1. As to the kind of experiment: VCAM-1 assay: immunoassay of cell-surface VCAM-1 expression on TNF-stimulated human aortic endothelial cells (HAEC). The format is cell-based. As to conditions: TNF 250 U/mL, overnight (18 hours). From the text:
CELL CULTURE: Human aortic endothelial cells (CellSystem) Media: 50:50 mix of CS 3.0 (CellSystem) and MCDB-107 (Sigma) 10% fetal bovine serum (FBS) (Hyclone) Tissue culture plates (24 well) (Costar) TNF: recombinant Tumor necrosis factor-alpha (Genzyme)
IMMUNOASSAYS: 10% buffered Formalin (Baxter) Dulbecco's modified eagle medium (DMEM), Phosphate buffered saline (PBS) (Gibco) Bovine serum albumin (BSA) (Sigma) Anti-ICAM-1 antibody (R&D System, BBA#3) Sheep anti-mouse IgG (Cappel, #55558) Horseradish peroxidase (HRP)-KIT (Bio-Rad, #172-1064) Anti-VCAM-1 antibody (R&D System, BBA#6) Goat anti-mouse IgG+IgM, F(ab)2 fragments, biotin conjugated (Jackson Immuno Research Lab, #115-066-068) 125-I-Streptavidin (Amersham, #IM.236)
Human aortic endothelial cells (HAEC) were seeded at 100,000 cells/mL/well in 24 well cluster plates and placed in a 5% CO2 to […] humidified incubator at 37° C. […]
The cells were incubated with anti-VCAM-1 monoclonal antibody (1.25 μg/mL) for 2 hours at 37° C. […] Cells were washed again (4 times) and digested overnight with the addition of 500 μL of 1N NaOH and radioactivity contained in the digests counted. Cell-surface VCAM-1 expression is shown as radioactivity bound to the cell surface under various conditions.

One may read the IC50 as the concentration at which inhibition is half-maximal. Low values mean inhibition by little substance, high ones a need for much substance.

Turning to `Cc1c(C)c2c(c(C)c1O)CCC(C)(COc1ccc(NC(=S)NC(c3ccccc3)c3ccccc3)cc1)O2` (stereo not shown) [Example 1, 1-Benzhydryl-3-[4-(6-hydroxy-2,5,7,8-tetramethyl-Chroman-2-ylmethoxy)-phenyl]-thiourea], 23.1 µM corresponded to half-maximal inhibition (IC50).

For the origin of these results see US5747528A, “Chroman derivatives as anti-oxidants” (Warner-Lambert Company, priority 1997, dated 1998).
